Results from US9440950B2, “Arginine methyltransferase inhibitors and uses thereof” (Epizyme, Inc., priority 2013, dated 2016).

biological target: T1, human PRMT8 (Homo sapiens, UniProt Q9NR22); assay: PRMT8 Biochemical Assay; conditions: peptide substrate, 3H-SAM Flashplate assay
T1 construct: Full-length human PRMT8 (NM_019854.4) isoform 1 transcript clone; made in house
Description: S-adenosylmethionine (SAM), S-adenosylhomocysteine (SAH), bicine, Tween20, dimethylsulfoxide (DMSO), bovine skin gelatin (BSG), isopropyl-P3-D-thiogalactopyranoside (IPTG), and Tris(2-carboxyethyl)phosphine hydrochloride solution (TCEP) were purchased from Sigma-Aldrich at the highest level of purity possible. ^3H-SAM was purchase from American Radiolabeled Chemicals with a specific activity of 80 Ci/mmol. 384-well streptavidin Flashplates were purchased from PerkinElmer.
Peptide representative of human histone H4 residues 31-45 was synthesized with an N-terminal linker-affinity tag motif and a C-terminal amide cap by 21st Century Biochemicals. The peptide was purified by high-performance liquid chromatography (HPLC) to greater than 95% purity and confirmed by liquid chromatography mass spectrometry (LC-MS). The sequence was Biot-Ahx-[…]-amide (SEQ ID NO.:8).
The resulting construct encodes an N-terminal GST tag and a thrombin cleavage sequence ([…] […] […] […]) (SEQ ID NO.:9) fused directly to Met 1 of PRMT8.
E. coli (BL21(DE3) Gold, Stratagene) made competent by the CaCl2 method were transformed with the PRMT8 construct and ampicillin selection. Protein over-expression was accomplished by growing the PRMT8 expressing E. coli clone and inducing expression with 0.3 mM IPTG at 16° C. The culture was grown for 12 hours, harvested by centrifugation, and stored at −80° C. for purification.
The column was washed with 50 mM phosphate buffer, 100 mM NaCl, 5% glycerol, 5 mM β-mercaptoethanol, pH 7.8 and PRMT8 was eluted by 100 mM phosphate in the same buffer. Protein was concentrated and buffer was exchanged to 50 mM Tris, 300 mM NaCl, 10% glycerol, 5 mM β-mercaptoethanol, pH 7.8 by ultrafiltration. The purity of recovered protein was 89%.
General Procedure for PRMT8 Enzyme Assays on Peptide Substrates.
The assays were all performed in a buffer consisting of 20 mM Bicine (pH=7.6), 1 mM TCEP, 0.005% BSG, and 0.002% Tween 20, prepared on the day of use. Compounds in 100% DMSO (1 ul) were spotted into a polypropylene 384-well V-bottom plates (Greiner) using a Platemate Plus outfitted with a 384-channel head (Thermo Scientific). DMSO (1 ul) was added to Columns 11, 12, 23, 24, rows A-H for the maximum signal control and 1 ul of SAH, a known product and inhibitor of PRMT8, was added to columns 11, 12, 23, 24, rows I-P for the minimum signal control. A cocktail (40 ul) containing the PRMT8 enzyme was added by Multidrop Combi (Thermo-Fisher). The compounds were allowed to incubate with PRMT8 for 30 min at room temperature, then a cocktail (10 ul) containing ^3H-SAM and peptide was added to initiate the reaction (final volume=51 ul). The final concentrations of the components were as follows: PRMT8 was 1.5 nM, ^3H-SAM was 50 nM, non-radiolabeled SAM was 550 nM, peptide was 150 nM, SAH in the minimum signal control wells was 1 mM, and the DMSO concentration was 2%. The assays were stopped by the addition of non-radiolabeled SAM (10 ul) to a final concentration of 400 uM, which dilutes the ^3H-SAM to a level where its incorporation into the peptide substrate is no longer detectable. 50 ul of the reaction in the 384-well polypropylene plate was then transferred to a 384-well Flashplate and the biotinylated peptides were allowed to bind to the streptavidin surface for at least 1 hour before being washed once with 0.1% Tween20 in a Biotek ELx405 plate washer. The plates were then read in a PerkinElmer TopCount plate reader to measure the quantity of ^3H-labeled peptide bound to the Flashplate surface, measured as disintegrations per minute (dpm) or alternatively, referred to as counts per minute (cpm).
Where dpm=disintegrations per minute, cmpd=signal in assay well, and min and max are the respective minimum and maximum signal controls.
Where top and bottom are the normally allowed to float, but may be fixed at 100 or 0 respectively in a 3-parameter fit. […]

T1 sequence (Q9NR22 whole entry, canonical isoform): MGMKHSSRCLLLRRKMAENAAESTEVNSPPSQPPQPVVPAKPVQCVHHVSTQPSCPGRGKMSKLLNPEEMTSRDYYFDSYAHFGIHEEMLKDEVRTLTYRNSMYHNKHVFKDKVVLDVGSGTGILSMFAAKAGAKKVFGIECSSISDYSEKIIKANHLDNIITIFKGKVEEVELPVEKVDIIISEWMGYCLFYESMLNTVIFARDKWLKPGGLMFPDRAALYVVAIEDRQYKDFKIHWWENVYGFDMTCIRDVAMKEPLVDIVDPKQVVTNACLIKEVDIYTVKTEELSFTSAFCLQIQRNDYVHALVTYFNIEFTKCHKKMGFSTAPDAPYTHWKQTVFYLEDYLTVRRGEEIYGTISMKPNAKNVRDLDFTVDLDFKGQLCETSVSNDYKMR

| Structure (SMILES) | IC50 |
| --- | --- |
| CNCCN(C)Cc1c[nH]nc1-c1cccnc1 [Compound 1] | 1.01 to 3 µM |
| CNCCN(C)Cc1c[nH]nc1-c1ccc(O)nc1 [Compound 2] | ≥ 10 µM |
| CNCCN(C)Cc1c[nH]nc1-c1ccc(N)nc1 [Compound 3] | 3.01 to 10 µM |
| CN(CCN)Cc1c[nH]nc1-c1cncc(S(C)(=O)=O)c1 [Compound 4] | ≥ 10 µM |
| COc1ccc(-c2n[nH]cc2CN(C)CCN)cn1 [Compound 5] | 1.01 to 3 µM |
| Cc1cncc(-c2n[nH]cc2CN(C)CCN)c1 [Compound 6] | 1.01 to 3 µM |
| CN(CCN)Cc1c[nH]nc1-c1cncc(F)c1 [Compound 7] | 1.01 to 3 µM |
| CN(CCN)Cc1c[nH]nc1-c1cccnc1 [Compound 8] | 1.01 to 3 µM |
| CN(CCN)Cc1c[nH]nc1-c1ccncc1 [Compound 9] | 0.101 to 1 µM |
| Cc1cc(-c2n[nH]cc2CN(C)CCN)cnc1Cl [Compound 10] | 0.101 to 1 µM |
| COc1cc(-c2n[nH]cc2CN(C)CCN)ccn1 [Compound 11] | 1.01 to 3 µM |
| COc1cc(-c2n[nH]cc2CN(C)CCN)c(Cl)cn1 [Compound 12] | 3.01 to 10 µM |
| CN(CCN)Cc1c[nH]nc1-c1ccc(C(F)(F)F)nc1 [Compound 13, N^1-methyl-N^1-((3-(6-(trifluoromethyl)pyridin-3-yl)-1H-pyrazol-4-yl)methyl)ethane-1,2-diamine] | 0.101 to 1 µM |
| COc1ncc(Cl)cc1-c1n[nH]cc1CN(C)CCN [Compound 14] | 3.01 to 10 µM |
| COc1ncccc1-c1n[nH]cc1CN(C)CCN [Compound 15] | 1.01 to 3 µM |
| COc1ccncc1-c1n[nH]cc1CN(C)CCN [Compound 16] | 3.01 to 10 µM |
| Cc1ccncc1-c1n[nH]cc1CN(C)CCN [Compound 17] | 3.01 to 10 µM |
| CN(CCN)Cc1c[nH]nc1-c1cncc(C#N)c1 [Compound 18] | 3.01 to 10 µM |
| CN(CCN)Cc1c[nH]nc1-c1cncc(Cl)c1 [Compound 19] | 1.01 to 3 µM |
| CN(CCN)Cc1c[nH]nc1-c1ccc(N2CCOCC2)nc1 [Compound 20] | 0.101 to 1 µM |
| CC(C)CN(C)c1ccc(-c2n[nH]cc2CN(C)CCN)cn1 [Compound 21] | 1.01 to 3 µM |
| CC(C)Oc1ccc(-c2n[nH]cc2CN(C)CCN)cn1 [Compound 22] | 0.101 to 1 µM |
| CN(CCN)Cc1c[nH]nc1-c1ccc(N(C)Cc2ccccc2)nc1 [Compound 23] | 0.101 to 1 µM |
| CCN(CC)c1ccc(-c2n[nH]cc2CN(C)CCN)cn1 [Compound 24] | 1.01 to 3 µM |
| CN(CCN)Cc1c[nH]nc1-c1ccc(NCc2ccccc2)nc1 [Compound 25] | 1.01 to 3 µM |
| CC(C)CNc1ccc(-c2n[nH]cc2CN(C)CCN)cn1 [Compound 26] | 1.01 to 3 µM |
| CN(CCN)Cc1c[nH]nc1-c1ccccn1 [Compound 27] | ≥ 10 µM |
| CN(CCN)Cc1c[nH]nc1-c1ccc(C#N)nc1 [Compound 28, 5-(4-(((2-aminoethyl)(methyl)amino)methyl)-1H-pyrazol-3-yl)picolinonitrile] | 0.101 to 1 µM |
| CN(CCN)Cc1c[nH]nc1-c1cnccc1C(F)(F)F [Compound 29] | ≥ 10 µM |
